Test results taken from patent US7875587B2, “Peptide analogues of GIP for treatment of diabetes, insulin resistance and obesity” (UUTECH Limited, priority 2004, dated 2011).
Read-outs that look alike come from different tables or passages of the source. No end group written: not given here.

Legend:
BRIN-BD11 cells = test: Acute tests for insulin secretion from BRIN-BD11 cells; format: cell-based; conditions: 5.6 and 16.7 mM glucose, 10^-13 to 10^-8 M peptide
Experimental: Culture of insulin secreting cells. BRIN-BD11 cells were cultured in sterile tissue culture flasks (Corning, Glass Works, UK) using RPMI-1640 tissue culture medium containing 10% (v/v) foetal calf serum, 1% (v/v) antibiotics (100 U/ml penicillin, 0.1 mg/ml streptomycin) and 11.1 mM glucose. The cells were maintained at 37° C. in an atmosphere of 5% CO2 and 95% air using a LEEC incubator (Laboratory Technical Engineering, Nottingham, UK).
Acute tests for insulin secretion. Before experimentation, the cells were harvested from the surface of the tissue culture flasks with the aid of trypsin/EDTA (Gibco), seeded into 24-multiwell plates (Nunc, Roskilde, Denmark) at a density of 1.5×10^5 cells per well, and allowed to attach overnight at 37° C. Acute tests for insulin release were preceded by 40 minutes pre-incubation at 37° C. in 1.0 ml Krebs Ringer bicarbonate buffer (115 mM NaCl, 4.7 mM KCl, 1.28 mM CaCl2, 1.2 mM KH2PO4, 1.2 mM MgSO4, 10 mM NaHCO3, 5 g/l bovine serum albumin, pH 7.4) supplemented with 1.1 mM glucose. Test incubations were performed (n=12) at two glucose concentrations (5.6 mM and 16.7 mM) with a range of concentrations (10^−13 to 10^−8 M) of GIP or GIP analogues. After 20 minutes incubation, the buffer was removed from each well and aliquots (200 μl) were used for measurement of insulin by radioimmunoassay.

[1] = Degradation of GIP and analogues by human plasma (HPLC); format: in vitro ADME; conditions: for % Intact peptide remaining after incubations with human plasma: 0 h; for effect of DPA on plasma degradation of the peptide: 24 hours in the presence of DPA; for remaining at 2 h, 20 µg/ml / remaining at 4 h, 20 µg/ml / remaining at 8 h, 20 µg/ml / remaining at 24 h, 20 µg/ml: human, plasma, read-out: % Intact peptide remaining after incubations with human plasma; for remaining at 2 h, 20 µg/ml: pH 7.8, 2 h; for remaining at 4 h, 20 µg/ml: pH 7.8, 4 h; for remaining at 8 h, 20 µg/ml: pH 7.8, 8 h
Experimental: Degradation of GIP and Tyr^1-glucitol GIP by human plasma. […] […] The reactions were terminated by addition of 5 μl of TFA and the final volume adjusted to 1.0 ml using 0.1% v/v TFA/water. Samples were centrifuged (13,000 g, 5 minutes) and the supernatant applied to a C-18 Sep-Pak cartridge (Millipore-Waters) which was previously primed and washed with 0.1% (v/v) TFA/water. […] The volume was adjusted to 1.0 ml with 0.12% (v/v) TFA/water prior to HPLC purification.
(§1) HPLC analysis of degraded GIP and Tyr^1-glucitol GIP. […] Using 0.1% (v/v) TFA in 70% acetonitrile/H20, the concentration of acetonitrile in the eluting solvent was raised from 0% to 31.5% over 15 min, to 38.5% over 30 minutes and from 38.5% to 70% over 5 minutes, using linear gradients. The absorbance was monitored at 206 nm and peak areas evaluated using a model 2221 LKB integrator. Samples recovered manually were concentrated using a Speed-Vac concentrator.
(§2) Electrospray ionization-mass spectrometry (ESI-MS) was carried out as described in Example 2. Degradation of GIP and novel GIP analogues by DPP IV and human plasma was carried out as described in Example 2.

DPP IV = target: T1, DPP IV (Sus scrofa, UniProt P22411); test: Degradation of GIP and analogues by DPP IV (HPLC); format: in vitro ADME; conditions: for resistance to in vitro degradation with DPP IV relative to native GIP: Example 3, summary of Table 1; for % Intact peptide remaining after time (h) / remaining at 2 h, 1 mmol/l / remaining at 4 h, 1 mmol/l / remaining at 8 h, 1 mmol/l / remaining at 24 h, 1 mmol/l: incubation with DPP IV; for % Intact peptide remaining after time (h): 0 h; for remaining at 2 h, 1 mmol/l / remaining at 4 h, 1 mmol/l / remaining at 8 h, 1 mmol/l / remaining at 24 h, 1 mmol/l: isolated enzyme dpp iv, pH 7.8, read-out: % Intact peptide remaining after time (h)
T1 construct: purchased Sigma (Poole, Dorset, UK)
Experimental: Degradation of GIP and Tyr^1-glucitol GIP by DPP IV. HPLC-purified GIP or Tyr^1-glucitol GIP were incubated at 37° C. with DPP-IV (5 mU) for various time periods in a reaction mixture made up to 500 μl with 50 mmol/l triethanolamine-HCl, pH 7.8 (final peptide concentration 1 mmol/l). Enzymatic reactions were terminated after 0, 2, 4 and 12 hours by addition of 5 μl of 10% (v/v) TFA/water. Samples were made up to a final volume of 1.0 ml with 0.12% (v/v) TFA and stored at −20° C. prior to HPLC analysis.
as §1, §2

[2] = pH 7.8, 24 hours in the presence of DPA (diprotin A)

T1 sequence (P22411 whole entry): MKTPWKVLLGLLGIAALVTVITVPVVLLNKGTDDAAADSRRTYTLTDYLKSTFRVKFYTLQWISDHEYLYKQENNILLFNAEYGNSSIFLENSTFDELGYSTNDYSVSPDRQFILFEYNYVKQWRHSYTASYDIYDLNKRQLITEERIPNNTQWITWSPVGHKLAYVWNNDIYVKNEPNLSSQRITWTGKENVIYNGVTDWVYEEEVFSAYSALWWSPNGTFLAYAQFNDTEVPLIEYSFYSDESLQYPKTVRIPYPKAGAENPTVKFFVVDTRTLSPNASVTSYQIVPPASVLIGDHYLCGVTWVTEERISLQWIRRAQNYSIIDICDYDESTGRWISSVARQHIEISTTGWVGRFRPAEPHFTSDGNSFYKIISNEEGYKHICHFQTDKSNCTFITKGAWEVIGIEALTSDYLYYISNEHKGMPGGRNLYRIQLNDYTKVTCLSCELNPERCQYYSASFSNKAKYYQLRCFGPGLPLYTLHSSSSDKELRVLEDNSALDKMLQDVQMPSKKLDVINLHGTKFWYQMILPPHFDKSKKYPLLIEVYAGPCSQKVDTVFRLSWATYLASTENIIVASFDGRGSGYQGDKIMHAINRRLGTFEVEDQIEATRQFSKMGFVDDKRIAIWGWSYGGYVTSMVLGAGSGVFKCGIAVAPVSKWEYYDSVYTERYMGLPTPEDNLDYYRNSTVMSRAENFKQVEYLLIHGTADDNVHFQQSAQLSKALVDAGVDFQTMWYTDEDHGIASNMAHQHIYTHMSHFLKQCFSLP

Molecule	insulin secretion from BRIN-BD11 cells (BRIN-BD11 cells)	% Intact peptide remaining after incubations with human plasma [1] [%]	effect of DPA on plasma degradation of the peptide [1]	remaining at 2 h, 20 µg/ml [1] [%]	remaining at 4 h, 20 µg/ml [1] [%]	remaining at 8 h, 20 µg/ml [1] [%]	remaining at 24 h, 20 µg/ml ([1]; pH 7.8, 24 h) [%]	remaining at 24 h, 20 µg/ml [1, 2] [%]	resistance to in vitro degradation with DPP IV relative to native GIP (DPP IV)	% Intact peptide remaining after time (h) (DPP IV) [%]	remaining at 2 h, 1 mmol/l (DPP IV) [%]	remaining at 4 h, 1 mmol/l (DPP IV) [%]	remaining at 8 h, 1 mmol/l (DPP IV) [%]	remaining at 24 h, 1 mmol/l (DPP IV) [%]	plasma degradation ([1]; Example 3, summary of Table 2)
CC[C@H](NC(=O)[C@@H](N)Cc1ccc(O)cc1)C(=O)N[C@@H](CCC(=O)O)C(=O)NCC(=O)N[C@H](C(=O)N[C@@H](Cc1ccccc1)C(=O)N[C@H](C(=O)N[C@@H](CO)C(=O)N[C@@H](CC(=O)O)C(=O)N[C@@H](Cc1ccc(O)cc1)C(=O)N[C@@H](CO)C(=O)N[C@H](C(=O)N[C@@H](C)C(=O)N[C@@H](CCSC)C(=O)N[C@@H](CC(=O)O)C(=O)N[C@@H](CCCCN)C(=O)N[C@H](C(=O)N[C@@H](Cc1c[nH]cn1)C(=O)N[C@@H](CCC(N)=O)C(=O)N[C@@H](CCC(N)=O)C(=O)N[C@@H](CC(=O)O)C(=O)N[C@@H](Cc1ccccc1)C(=O)N[C@H](C(=O)N[C@@H](CC(N)=O)C(=O)N[C@@H](Cc1c[nH]c2ccccc12)C(=O)N[C@@H](CC(C)C)C(=O)N[C@@H](CC(C)C)C(=O)N[C@@H](C)C(=O)N[C@@H](CCC(N)=O)C(=O)N[C@@H](CCCCN)C(=O)NCC(=O)N[C@@H](CCCCN)C(=O)N[C@@H](CCCCN)C(=O)N[C@@H](CC(N)=O)C(=O)N[C@@H](CC(=O)O)C(=O)N[C@@H](Cc1c[nH]c2ccccc12)C(=O)N[C@@H](CCCCN)C(=O)N[C@@H](Cc1c[nH]cn1)C(=O)N[C@@H](CC(N)=O)C(=O)N[C@H](C(=O)N[C@H](C(=O)N[C@@H](CCC(N)=O)C(=O)O)[C@@H](C)O)[C@@H](C)CC)C(C)C)[C@@H](C)CC)[C@@H](C)CC)[C@@H](C)CC)[C@@H](C)O [GIP (Abu^2)]	complex pattern of responsiveness dependent on glucose concentration and dose employed	100	complete abolition of degradation	38 ± 1	28 ± 2	0	0	100	more resistant than native GIP	100	38 ± 1	28 ± 2	0	0	
CC[C@H](C)[C@H](NC(=O)[C@H](CO)NC(=O)[C@H](Cc1ccc(O)cc1)NC(=O)[C@H](CC(=O)O)NC(=O)[C@H](CO)NC(=O)[C@@H](NC(=O)[C@H](Cc1ccccc1)NC(=O)[C@@H](NC(=O)CNC(=O)[C@H](CCC(=O)O)NC(=O)CN(C)C(=O)[C@@H](N)Cc1ccc(O)cc1)[C@@H](C)O)[C@@H](C)CC)C(=O)N[C@@H](C)C(=O)N[C@@H](CCSC)C(=O)N[C@@H](CC(=O)O)C(=O)N[C@@H](CCCCN)C(=O)N[C@H](C(=O)N[C@@H](Cc1c[nH]cn1)C(=O)N[C@@H](CCC(N)=O)C(=O)N[C@@H](CCC(N)=O)C(=O)N[C@@H](CC(=O)O)C(=O)N[C@@H](Cc1ccccc1)C(=O)N[C@H](C(=O)N[C@@H](CC(N)=O)C(=O)N[C@@H](Cc1c[nH]c2ccccc12)C(=O)N[C@@H](CC(C)C)C(=O)N[C@@H](CC(C)C)C(=O)N[C@@H](C)C(=O)N[C@@H](CCC(N)=O)C(=O)N[C@@H](CCCCN)C(=O)NCC(=O)N[C@@H](CCCCN)C(=O)N[C@@H](CCCCN)C(=O)N[C@@H](CC(N)=O)C(=O)N[C@@H](CC(=O)O)C(=O)N[C@@H](Cc1c[nH]c2ccccc12)C(=O)N[C@@H](CCCCN)C(=O)N[C@@H](Cc1c[nH]cn1)C(=O)N[C@@H](CC(N)=O)C(=O)N[C@H](C(=O)N[C@H](C(=O)N[C@@H](CCC(N)=O)C(=O)O)[C@@H](C)O)[C@@H](C)CC)C(C)C)[C@@H](C)CC [GIP (Sar^2)]	complex pattern of responsiveness dependent on glucose concentration and dose employed	100		28 ± 2	8	0	0	100	less resistant	100	28 ± 2	8	0	0	resistance to plasma degradation
YSEGTFISDYSIAMDKIHQQDFVNWLLAQKGKKNDWKHNITQ-OH [GIP (Ser^2)]	strong response	100	complete abolition of degradation	77 ± 2	60 ± 1	32 ± 4	0	63 ± 3	more resistant than native GIP	100	77 ± 2	60 ± 1	32 ± 4	0	
